Measured values from US9682976B2, “Protein kinase C inhibitors and uses thereof” (Rigel Pharmaceuticals, Inc., priority 2012, dated 2017).
pEC50: −log10 of the molar value. One block for each compound: values may come before it.

Test system: PKC mediated IL-2 production
Assay: IL-2 ELISA, human primary T cell, anti CD3+CD28+
Format: cell-based
Conditions: human primary T cells stimulated with αCD3 and αCD28, 24 hours
How it was run: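 IL-2 was quantified by ELISA in 24 h supernatants from primary human T cells given a 1 h compound pre-treatment at 37° C. These cells had been expanded from blood mononuclear cells on αCD3/αCD28 with IL-2, and the IL-2 was removed by washing. Stimulation used plate-bound αCD3 ([…]) plus αCD28 (5 μg/ml); the counter assay used PMA (0.5 ng/ml) with ionomycin (0.1 uM) instead.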

SMILES: Cn1nnn(-c2cc(Nc3ncc(F)c(N[C@@H]4C[C@@H]5CCCN5C(C)(C)C4)n3)c(F)cc2OCC2(CO)COC2)c1=O [Compound 165, 1-(5-((4-(((7R,8aS)-5,5-dimethyloctahydroindolizin-7-yl)amino)-5-fluoropyrimidin-2-yl)amino)-4-fluoro-2-((3-(hydroxymethyl)oxetan-3-yl)methoxy)phenyl)-4-methyl-1,4-dihydro-5H-tetrazol-5-one]
pEC50 (Homo sapiens, T-cell, 24 h): 6.00 to 6.30

SMILES: CC1(C)C[C@H](Nc2nc(Nc3cccc(-n4nnnc4S)c3)ncc2F)C[C@@H]2CCCN21 [Compound 259, 1-(3-(4-((7R,8aS)-octahydro-5,5-dimethylindolizin-7-ylamino)-5-fluoropyrimidin-2-ylamino)phenyl)-1H-tetrazole-5-thiol]
pEC50 (Homo sapiens, T-cell, 24 h): 5.00 to 6.00

SMILES: Cn1nnn(-c2cc(Nc3ncc(F)c(NC4CCN5C(CCC5(C)C)C4)n3)c(F)cc2C2CC2)c1=O (single isomer, unassigned) [Compound 35, 1-(5-(5-fluoro-4-(octahydro-3,3-dimethylindolizin-7-ylamino)pyrimidin-2-ylamino)-2-cyclopropyl-4-fluorophenyl)-4-methyl-1H-tetrazol-5(4H)-one]
pEC50: 5.00 to 6.00

SMILES: CC1(C)C[C@H](Nc2nc(Nc3cc(F)cc(S(F)(F)(F)(F)F)c3)ncc2F)C[C@@H]2CCCN21 [Compound 72]
pEC50 (Homo sapiens, T-cell, 24 h): 6.00 to 6.30

SMILES: COCCOc1ccc(Nc2ncc(F)c(N[C@@H]3C[C@@H]4CCCN4C(C)(C)C3)n2)c(F)c1OCCOC [Compound 160, N4-((7R,8aS)-5,5-dimethyloctahydroindolizin-7-yl)-5-fluoro-N2-(2-fluoro-3,4-bis(2-methoxyethoxy)phenyl)pyrimidine-2,4-diamine]
pEC50 (Homo sapiens, T-cell, 24 h): 5.00 to 6.00

SMILES: CC1C(Nc2nc(Nc3cc(-n4nnn(C)c4=O)c(C4CC4)cc3F)ncc2F)CC(C)(C)N2CCCC12 (centres unmarked) [Compound 69, 1-(5-(5-Fluoro-4-(octahydro-5,5,8-trimethylindolizin-7-ylamino)pyrimidin-2-ylamino)-2-cyclopropyl-4-fluorophenyl)-4-methyl-1H-tetrazol-5(4H)-one]
pEC50 (Homo sapiens, T-cell, 24 h): 6.00 to 6.30

SMILES: C[C@@H](O)COc1cc(F)c(Nc2ncc(F)c(N[C@@H]3C[C@@H]4CCCN4C(C)(C)C3)n2)cc1-n1nnn(C)c1=O [Compound 82]
pEC50: > 7.00

SMILES: Cn1nnn(-c2cc(Nc3ncc(F)c(N[C@@H]4C[C@@H]5CCCN5C(C)(C)C4)n3)c(F)cc2OC2CCOCC2)c1=O [Compound 114, 1-(5-((4-(((7R,8aS)-5,5-dimethyloctahydroindolizin-7-yl)amino)-5-fluoropyrimidin-2-yl)amino)-4-fluoro-2-((tetrahydro-2H-pyran-4-yl)oxy)phenyl)-4-methyl-1,4-dihydro-5H-tetrazol-5-one]
pEC50 (Homo sapiens, T-cell, 24 h): 6.00 to 6.30

Results, then the compound that gave them:

pEC50 (Homo sapiens, T-cell, 24 h): 6.30 to 7.00
SMILES: Cn1nnn(-c2cc(Nc3ncc(F)c(N[C@@H]4C[C@@H]5C[C@H](F)CN5C(C)(C)C4)n3)c(F)cc2C2CC2)c1=O [Compound 67, 1-(5-(4-((2S,7R,8aR)-2-fluoro-octahydro-5,5-dimethylindolizin-7-ylamino)-5-fluoropyrimidin-2-ylamino)-2-cyclopropyl-4-fluorophenyl)-4-methyl-1H-tetrazol-5(4H)-one]

pEC50 (Homo sapiens, T-cell, 24 h): 6.30 to 7.00
SMILES: CC1(C)CC[C@H]2C[C@@H](Nc3nc(Nc4ccc(OCCCO)c(OC(F)F)c4)ncc3F)CCN21 [Compound 307, 3-(2-(Difluoromethoxy)-4-((4-(((7S,8aS)-3,3-dimethyloctahydroindolizin-7-yl)amino)-5-fluoropyrimidin-2-yl)amino)phenoxy)propan-1-ol]

pEC50 (Homo sapiens, T-cell, 24 h): > 7.00
SMILES: CC1(C)C[C@H](Nc2nc(Nc3cc(-n4nnnc4C4CC4)ccc3F)ncc2F)C[C@@H]2CCCN21 [Compound 144, N2-(5-(5-cyclopropyl-1H-tetrazol-1-yl)-2-fluorophenyl)-N4-((7R,8aS)-5,5-dimethyloctahydroindolizin-7-yl)-5-fluoropyrimidine-2,4-diamine]

pEC50 (Homo sapiens, T-cell, 24 h): 6.30 to 7.00
SMILES: COCCOc1cc(F)c(Nc2ncc(F)c(N[C@@H]3C[C@@H]4CCCN4C(C)(C)C3)n2)cc1-n1nnn(C)c1=O [Compound 158, 1-(5-((4-(((7R,8aS)-5,5-dimethyloctahydroindolizin-7-yl)amino)-5-fluoropyrimidin-2-yl)amino)-4-fluoro-2-(2-methoxyethoxy)phenyl)-4-methyl-1,4-dihydro-5H-tetrazol-5-one]

pEC50 (Homo sapiens, T-cell, 24 h): > 7.00
SMILES: COc1ccc(Nc2ncc(F)c(N[C@@H]3C[C@@H]4CCCN4C(C)(C)C3)n2)cc1-n1nnnc1C [Compound 140, N4-((7R,8aS)-5,5-dimethyloctahydroindolizin-7-yl)-5-fluoro-N2-(4-methoxy-3-(5-methyl-1H-tetrazol-1-yl)phenyl)pyrimidine-2,4-diamine]

pEC50 (Homo sapiens, T-cell, 24 h): > 7.00
SMILES: CC1(C)Oc2ccc(Nc3ncc(F)c(N[C@@H]4C[C@@H]5CCCN5C(C)(C)C4)n3)cc2-n2nnnc21 [Compound 136, N2-(4,4-dimethyl-4H-benzo[b]tetrazolo[1,5-d][1,4]oxazin-8-yl)-N4-((7R,8aS)-5,5-dimethyloctahydroindolizin-7-yl)-5-fluoropyrimidine-2,4-diamine]

pEC50 (Homo sapiens, T-cell, 24 h): > 7.00
SMILES: C[C@@H](CO)Oc1ccc(Nc2ncc(F)c(N[C@@H]3C[C@@H]4CCCN4C(C)(C)C3)n2)cc1-n1nnn(C)c1=O [Compound 135, 1-(5-((4-(((7R,8aS)-5,5-dimethyloctahydroindolizin-7-yl)amino)-5-fluoropyrimidin-2-yl)amino)-2-(((S)-1-hydroxypropan-2-yl)oxy)phenyl)-4-methyl-1,4-dihydro-5H-tetrazol-5-one]

pEC50 (Homo sapiens, T-cell, 24 h): 6.30 to 7.00
SMILES: Cn1nnn(-c2cc(Nc3ncc(F)c(N[C@@H]4C[C@@H]5CCCN5C(C)(C)C4)n3)c(F)cc2OCC2COC2)c1=O [Compound 166, 1-(5-((4-(((7R,8aS)-5,5-dimethyloctahydroindolizin-7-yl)amino)-5-fluoropyrimidin-2-yl)amino)-4-fluoro-2-(oxetan-3-ylmethoxy)phenyl)-4-methyl-1,4-dihydro-5H-tetrazol-5-one]

pEC50 (Homo sapiens, T-cell, 24 h): 6.30 to 7.00
SMILES: CC1(C)CC(Nc2nc(Nc3ccc(O[C@H]4CCOC4)c(C#N)c3)ncc2F)CC2CCCN21 (mixture of isomers) [Compound 60, 2-((S)-tetrahydrofuran-3-yloxy)-5-(5-fluoro-4-(octahydro-5,5-dimethylindolizin-7-ylamino)pyrimidin-2-ylamino)benzonitrile]

pEC50 (Homo sapiens, T-cell, 24 h): 6.30 to 7.00
SMILES: Cn1nnn(-c2cc(Nc3ncc(F)c(N[C@@H]4C[C@@H]5CCCN5C(C)(C)C4)n3)c(F)cc2OCC2CCO2)c1=O (stereo partly drawn) [Compound 167, 1-(5-((4-(((7R,8aS)-5,5-dimethyloctahydroindolizin-7-yl)amino)-5-fluoropyrimidin-2-yl)amino)-4-fluoro-2-(oxetan-2-ylmethoxy)phenyl)-4-methyl-1,4-dihydro-5H-tetrazol-5-one]

pEC50 (Homo sapiens, T-cell, 24 h): 6.30 to 7.00
SMILES: CC1(COc2ccc(Nc3ncc(F)c(N[C@@H]4C[C@@H]5CCCN5C(C)(C)C4)n3)cc2C#N)COC1 [Compound 173, 5-(4-((7R,8aS)-5,5-dimethyloctahydroindolizin-7-ylamino)-5-fluoropyrimidin-2-ylamino)-2-((3-methyloxetan-3-yl)methoxy)benzonitrile]

pEC50 (Homo sapiens, T-cell, 24 h): > 7.00
SMILES: Cn1nnn(-c2cc(Nc3ncc(Cl)c(N[C@@H]4C[C@@H]5CCCN5C(C)(C)C4)n3)c(F)cc2OCC(C)(C)O)c1=O [Compound 240, 1-(5-((5-chloro-4-(((7R,8aS)-5,5-dimethyloctahydroindolizin-7-yl)amino)pyrimidin-2-yl)amino)-4-fluoro-2-(2-hydroxy-2-methylpropoxy)phenyl)-4-methyl-1,4-dihydro-5H-tetrazol-5-one]
